Experimental data taken from patent US9790503B2, “VHZ for diagnosis and treatment of cancer” (AGENCY FOR SCIENCE, TECHNOLOGY AND RESEARCH (A*STAR), priority 2007, dated 2017).

Target: T1, VHZ-GST (Homo sapiens, UniProt Q9BVJ7)
T1 construct: made in house
T1 sequence (Q9BVJ7 1-150): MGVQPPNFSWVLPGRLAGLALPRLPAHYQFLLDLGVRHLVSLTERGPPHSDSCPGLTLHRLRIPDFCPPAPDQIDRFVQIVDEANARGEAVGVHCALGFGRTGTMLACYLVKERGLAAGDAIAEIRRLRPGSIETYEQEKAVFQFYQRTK
Assay: Tyrosine phosphatase assay (EnzChek kit, fluorogenic substrate)
Type: biochemical
Conditions: 10 μM sodium orthovanadate added to the reaction; VHZ-GST 0.675 picomoles; fluorescence excitation/emission 358/452 nm
Method: The EnzChek kit (Invitrogen, R22065) is used. As per the manufacturer's protocol, the fluorogenic substrate is reconstituted in the assay wells with buffer; the desired potential PTPases (0.675 picomole for each protein: VHZ-GST, VHZ-GST+Phosphatase inhibitor, VHZ(C95S)-GST, and control GST) are added to the wells and incubated 30 min or 90 min respectively. The fluorescence is then quantified using a Gemini XPS microplate spectrofluorometer (Molecular Devices). Fluorescence is measured at 10 minute intervals at the excitation and emission wavelengths of 358 and 452 nm, respectively. The phosphatase inhibitor sodium orthovanadate (10 μM) is used in the assay as a negative control.

[Na+].[Na+].[Na+].[O]=[V]([O-])([O-])[O-] [sodium orthovanadate]
PTPase activity of VHZ: completely abolished
